Assay results from patent US9670227B2, “Thienopyrimidine derivatives, a process for their preparation and pharmaceutical compositions containing them” (LES LABORATOIRES SERVIER, priority 2013, dated 2017).
Like-named read-outs stand apart in the source and are kept apart here.

Biological target: Mcl-1 protein (UniProtKB primary accession number: Q07820) (Homo sapiens, UniProt Q07820)
Experiment: Inhibition of Mcl-1 by fluorescence polarisation, Method 1
Assay type: binding
Settings: for IC50: read-out: IC50 (M) Mcl-1 FP
Method in brief: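 Compounds were tested as 11-point serial dilutions at 5% final DMSO against 5 nM Mcl-1 with 1 nM fluorescein-labelled ligand in 10 mM HEPES, 150 mM NaCl, 0.05% Tween 20, pH 7.4. Relative binding potency was read by fluorescence polarisation.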

[1] = fluorescence polarisation test, Method 2 values are underlined in the patent (underlining not visible here)
[2] = fluorescence polarisation, Method 1, or Method 2

Sequence of Mcl-1 protein (Q07820 whole entry): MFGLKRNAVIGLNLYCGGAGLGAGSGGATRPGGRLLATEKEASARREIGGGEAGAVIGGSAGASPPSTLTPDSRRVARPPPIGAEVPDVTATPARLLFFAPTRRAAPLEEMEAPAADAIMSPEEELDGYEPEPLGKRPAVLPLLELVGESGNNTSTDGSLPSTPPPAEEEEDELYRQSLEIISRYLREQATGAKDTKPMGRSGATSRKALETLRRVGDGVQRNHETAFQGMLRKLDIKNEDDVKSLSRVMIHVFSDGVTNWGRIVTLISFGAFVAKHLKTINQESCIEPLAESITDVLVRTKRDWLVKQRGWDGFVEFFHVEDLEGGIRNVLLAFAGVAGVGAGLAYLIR

Compound	IC50 [2] [M]	also measured
Cc1c(-c2c(-c3ccco3)sc3ncnc(OC(Cc4ccccc4SCC(F)(F)F)C(=O)O)c23)ccc(OCCN2CCN(C)CC2)c1Cl [Example 361, (2S)-2-{[(5Ra)-5-{3-chloro-2-methyl-4-[2-(4-methylpiperazin-1-yl)ethoxy]phenyl}-6-(furan-2-yl)thieno[2,3-d]pyrimidin-4-yl]oxy}-3-{2-[(2,2,2-trifluoroethyl)sulfanyl]phenyl}propanoic acid]	–	IC50 [1]: 7.1e-07 M
COc1ccccc1CC(Oc1ncnc2sc(-c3ccc(Cl)o3)c(-c3ccc(OCCN4CCN(C)CC4)c(Cl)c3C)c12)C(=O)O [Example 363, (2R)-2-{[6-(5-chlorofuran-2-yl)-(5Sa)-5-{3-chloro-2-methyl-4-[2-(4-methylpiperazin-1-yl)ethoxy]phenyl}thieno[2,3-d]pyrimidin-4-yl]oxy}-3-(2-methoxyphenyl)propanoic acid]	–	IC50 [1]: 7.7e-09 M
CCc1sc2ncnc(OC(Cc3ccccc3)C(=O)O)c2c1-c1ccc(OCC(=O)N2CCN(C)CC2)c(Cl)c1C [Example 392, (2R)-2-[((5Sa)-5-{3-chloro-2-methyl-4-[2-(4-methylpiperazin-1-yl)-2-oxoethoxy]phenyl}-6-ethylthieno[2,3-d]pyrimidin-4-yl)oxy]-3-phenylpropanoic acid]	–	IC50 [1]: 3e-08 M
CCc1sc2ncnc(OC(Cc3ccccc3)C(=O)O)c2c1-c1ccc(OCCN(C)C)cc1C [Example 409, (2R)-2-[((5Sa)-5-{4-[2-(dimethylamino)ethoxy]-2-methylphenyl}-6-ethylthieno[2,3-d]pyrimidin-4-yl)oxy]-3-phenylpropanoic acid]	2e-07	–
CCc1sc2ncnc(OC(Cc3ccccc3)C(=O)O)c2c1-c1ccc(OCCN(C)C)cc1C [Example 410, (2R)-2-[((5Ra)-5-{4-[2-(dimethylamino)ethoxy]-2-methylphenyl}-6-ethylthieno[2,3-d]pyrimidin-4-yl)oxy]-3-phenylpropanoic acid]	2.2e-06	–
CCc1sc2ncnc(OC(Cc3ccccc3)C(=O)O)c2c1-c1ccc(OCCN2CCN(C)CC2)cc1C [Example 416, (2R)-2-[(6-ethyl-(5Ra)-5-{2-methyl-4-[2-(4-methylpiperazin-1-yl)ethoxy]phenyl}thieno[2,3-d]pyrimidin-4-yl)oxy]-3-phenylpropanoic acid]	7e-07	–
CCc1sc2ncnc(OC(Cc3ccccc3)C(=O)O)c2c1-c1ccc(OCCN2CCN(C)CC2)cc1C [Example 417, (2R)-2-[(6-ethyl-(5Sa)-5-{2-methyl-4-[2-(4-methylpiperazin-1-yl)ethoxy]phenyl}thieno[2,3-d]pyrimidin-4-yl)oxy]-3-phenylpropanoic acid]	1.5e-07	–
CCc1sc2ncnc(O[C@H](Cc3ccccc3)C(=O)O)c2c1-c1ccc(OCCN2CCOCC2)c(Cl)c1C [Example 421, (2R)-2-[((5Ra)-5-{3-chloro-2-methyl-4-[2-(morpholin-4-yl)ethoxy]phenyl}-6-ethylthieno[2,3-d]pyrimidin-4-yl)oxy]-3-phenylpropanoic acid]	–	percentage fluorescence polarisation inhibition, Mcl-1 FP (partial inhibitors, @ 10 uM test compound): 38.1% @ 10 uM
CCc1sc2ncnc(OC(Cc3ccccc3)C(=O)O)c2c1-c1ccc(OCCOC)c(Cl)c1C [Example 424, (2R)-2-({(5Sa)-5-[3-chloro-4-(2-methoxyethoxy)-2-methylphenyl]-6-ethylthieno[2,3-d]pyrimidin-4-yl}oxy)-3-phenylpropanoic acid]	9.6e-08	–
CCc1sc2ncnc(OC(Cc3ccccc3)C(=O)O)c2c1-c1cc(CN2CCN(C)CC2)c(O)c(Cl)c1C [Example 430, (2R)-2-[((5Sa)-5-{3-chloro-4-hydroxy-2-methyl-5-[(4-methylpiperazin-1-yl)methyl]phenyl}-6-ethylthieno[2,3-d]pyrimidin-4-yl)oxy]-3-phenylpropanoic acid]	1.4e-07	–

More lines, main results first:

IC50 [2] [M]	Compound	also measured
3.4e-08	CCc1sc2ncnc(OC(Cc3ccccc3)C(=O)O)c2c1-c1ccc(OCc2ccccc2)c(Cl)c1C [Example 394, (2R)-2-({(5Sa)-5-[4-(benzyloxy)-3-chloro-2-methylphenyl]-6-ethylthieno[2,3-d]pyrimidin-4-yl}oxy)-3-phenylpropanoic acid]	–
1.6e-08	CCc1sc2ncnc(OC(Cc3ccccc3)C(=O)O)c2c1-c1ccc(OCc2ccncc2)c(Cl)c1C [Example 395, (2R)-2-({(5Sa)-5-[3-chloro-2-methyl-4-(pyridin-4-ylmethoxy)phenyl]-6-ethylthieno[2,3-d]pyrimidin-4-yl}oxy)-3-phenylpropanoic acid]	–
1.4e-08	CCc1sc2ncnc(OC(Cc3ccccc3)C(=O)O)c2c1-c1ccc(OCCCc2ccncc2)c(Cl)c1C [Example 399, (2R)-2-[((5Sa)-5-{3-chloro-2-methyl-4-[3-(pyridin-4-yl)propoxy]phenyl}-6-ethylthieno[2,3-d]pyrimidin-4-yl)oxy]-3-phenylpropanoic acid]	–
1.4e-08	CCc1sc2ncnc(OC(Cc3ccccc3)C(=O)O)c2c1-c1ccc(OCCCn2ccnc2)c(Cl)c1C [Example 403, (2R)-2-[((5Sa)-5-{3-chloro-4-[3-(1H-imidazol-1-yl)propoxy]-2-methylphenyl}-6-ethylthieno[2,3-d]pyrimidin-4-yl)oxy]-3-phenylpropanoic acid]	–
7.4e-09	CCc1sc2ncnc(OC(Cc3ccccc3)C(=O)O)c2c1-c1ccc(OCCCO)c(Cl)c1C [Example 405, (2R)-2-({(5Sa)-5-[3-chloro-4-(3-hydroxypropoxy)-2-methylphenyl]-6-ethylthieno[2,3-d]pyrimidin-4-yl}oxy)-3-phenylpropanoic acid]	–
5.3e-08	CCc1sc2ncnc(OC(Cc3ccccc3)C(=O)O)c2c1-c1ccc(OCCO)c(Cl)c1C [Example 423, (2R)-2-({(5Sa)-5-[3-chloro-4-(2-hydroxyethoxy)-2-methylphenyl]-6-ethylthieno[2,3-d]pyrimidin-4-yl}oxy)-3-phenylpropanoic acid]	–
9.6e-09	CCc1sc2ncnc(OC(Cc3ccccc3)C(=O)O)c2c1-c1ccc(OCCOCCOC)c(Cl)c1C [Example 425, (2R)-2-[((5Sa)-5-{3-chloro-4-[2-(2-methoxyethoxy)ethoxy]-2-methylphenyl}-6-ethylthieno[2,3-d]pyrimidin-4-yl)oxy]-3-phenylpropanoic acid]	–
4.6e-09	CCc1sc2ncnc(OC(Cc3ccccc3)C(=O)O)c2c1-c1cc([N+](=O)[O-])c(O)c(Cl)c1C [Example 426, (2R)-2-{[(5Sa)-5-(3-chloro-4-hydroxy-2-methyl-5-nitrophenyl)-6-ethylthieno[2,3-d]pyrimidin-4-yl]oxy}-3-phenylpropanoic acid]	–
4.7e-09	CCc1sc2ncnc(OC(Cc3ccccc3)C(=O)O)c2c1-c1cc(Br)c(O)c(Cl)c1C [Example 427, (2R)-2-{[(5Sa)-5-(5-bromo-3-chloro-4-hydroxy-2-methylphenyl)-6-ethylthieno[2,3-d]pyrimidin-4-yl]oxy}-3-phenylpropanoic acid]	–
7.5e-09	CCc1sc2ncnc(OC(Cc3ccccc3)C(=O)O)c2c1-c1cc(Cl)c(O)c(Cl)c1C [Example 428, (2R)-2-{[(5Sa)-5-(3,5-dichloro-4-hydroxy-2-methylphenyl)-6-ethylthieno[2,3-d]pyrimidin-4-yl]oxy}-3-phenylpropanoic acid]	–
5.3e-08	CCc1sc2ncnc(OC(Cc3ccccc3)C(=O)O)c2c1-c1cc(Cl)c(O)c(Cl)c1C [Example 429, (2R)-2-{[(5Ra)-5-(3,5-dichloro-4-hydroxy-2-methylphenyl)-6-ethylthieno[2,3-d]pyrimidin-4-yl]oxy}-3-phenylpropanoic acid]	–
